Assay results taken from article PMC5330312, “Design and engineering of water-soluble light-harvesting protein maquettes” (Chemical Science, 2016).
Values belong to the compound of their own block, whether it stands above or below them.

Assays:
[1] = test system: His-containing four-helix maquette (histidines at positions 7 and 112); assay: Cofactor binding titration into His maquette, UV/Vis spectra analysed by SVD; conditions: for comparative binding affinity, in words: maquette, Fig. 4; for Kd: CHES buffer pH 9.0, 25 °C, SVD fit of spectral titration, read-out: Kd (dissociation constant for each His site)
Description: To determine the acceptable range and pattern of hydrophobic vs. hydrophilic perimeters for Zn porphyrins, we synthesized all permutations of phenyl and carboxyphenyl tetra meso substituents (Fig. 3 and 4). The visible spectral changes that occurred as these porphyrins were titrated into a His maquette solution were fitted to a simple binding model with a single dissociation constant (K d) for each His site using singular value decomposition.[16] […] At least one hydrophobic and one hydrophilic group substitution is necessary for porphyrin ligating to the maquettes with nanomolar affinities.
(§1) Protein solutions were prepared in CHES buffer (20 mM, 150 mM KCl, pH 9.0). Binding was monitored by UV/Vis Soret band absorbance on a Varian Cary-50 spectrophotometer at room temperature in a 1 cm path quartz cuvette. Secondary structure was monitored by CD spectroscopy (Aviv Model 410) at 25 °C with a 1 mm path quartz cuvette. Thermal denaturation was followed by monitoring the ellipticity at 222 nm every 5 °C after 15 minutes of equilibration. Melting temperatures were calculated using a Boltzmann equation with one term for each observed transition.
Pigment stock solutions were weighed out and solubilized in dimethylsulfoxide to give concentrations of 1 mM Zn porphyrins, 1 mM chlorin (11), 500 μM chlorin (12), and 2 mM chlorin (13). Binding of Zn porphyrins shift the Soret peak from 422 nm to 432 nm. Binding of chlorins shift the Soret band from 415 nm to 423 nm for (12), 411 nm to 425 nm for (13), and 409 nm to 417 nm for (11). Dissociation constants (K d values) were determined as follows. To 1 ml of protein solution at 25 °C, 1 μl additions of 0.2 (porphyrin) or 0.1 (chlorin) equivalent aliquots were added successively to obtain a spectrum from 300 to 700 nm. At 1 equivalent of cofactor the DMSO concentration is 1%. Titrations typically ended at 4 equivalents of cofactor. […] The amplitudes of the first two principle components as a function of total pigment added fit well to a mathematical model of a single dissociation constant for each protein binding site to generate fit spectral extinction coefficients at each wavelength for the unbound and bound pigment spectra as well as values and error estimates for the dissociation constants.

[2] = test system: His-free control maquette; assay: Absorption spectra of porphyrin with His-free control maquette; type: binding; conditions: 4 μM porphyrin, 2 μM maquette
Description: (§2) The structural requirements for tetrapyrrole self-assembly in aqueous solution were first tested with Zn tetraphenyl porphyrins. The solubility in polar and non-polar environments was adjusted through combinations of hydrophobic and hydrophilic groups at the meso positions. Zn tetrapyrrole pigments discussed in this text are abbreviated with bold numbers, with full chemical names given in the Experimental section and structures illustrated in the figures. […] Thus, one non-polar edge of a Zn porphyrin was sufficient to provide facile binding.
(§3) Blue, green and red spectra correspond to no maquette, His-free maquette or His-containing maquette, respectively. Panel (A) and (B) show spectra for 4 μM porphyrins (1) or (2) respectively with 2 μM maquette, when present.
as §1

His-containing maquette = assay: Absorption spectra of porphyrin with His-containing maquette; type: binding; conditions: 4 μM porphyrin, 2 μM maquette
Description: as §2, §3, §1

[3] = Water solubility of the tetrapyrrole (qualitative); type: physicochemical
protein maquette = assay: Stopped-flow mixing of tetrapyrrole and maquette (binding kinetics); conditions: for binding speed, in words: stopped-flow mixing
Protocol: Tetrapyrrole and protein were added to separate syringes of an OLIS RSM 1000 stopped flow spectrophotometer, which takes a full visible spectrum every millisecond through a 2 cm flow cell after rapid (∼2 ms deadtime) mixing. Temperature was controlled with a Fischer-Scientific IsoTemp 3031 water bath. Individual wavelengths were selected for further kinetic analysis. All experiments were performed in triplicate, and the data were averaged together for further analysis.
Title: Design and engineering of water -soluble light-harvesting protein maquettes Goutham Kodali, Joshua A. Mancini, Lee A. Solomon, Tatiana Esipova, Nicholas Roach, Christopher J. Hobbs, Pawel Wagner, Olga A. Mass, Kunche Aravindu, Jonathan E. Barnsley, Keith C. Gordon, David L. Officer, P. Leslie Dutton and Christopher C. Moser*
Figure S1: Proliferating carbox ylic groups on the 15- porph yrin substituent leads to faster […]
Conditions: 2 µ M of protein maquette in 20 mM CHES, 150 mM KCl mixed with one equivalent of porphyrin, either 5- phen yl-15-carbox y phen ylporph yrin [9] (red) or 5- phen yl -15- Newkome phen ylporphyrin [10] (green).
Normalized absorbance i ncreas e with time in seco nds.

maquette = assay: Thermal denaturation of maquette by circular dichroism at 222 nm; conditions: 2 μM maquette with 2 equivalents of cofactor
Protocol: Fig. 7 Thermal stability of the maquette increased upon tetrapyrrole binding. Circular dichroism at 222 nm monitors alpha helical folding for 2 μM maquette without (blue) or with (red) 2 equivalents of (11) as a function of temperature.
as §1

Compound: O=C(O)c1ccc(-c2c3nc(c(-c4ccc(C(=O)O)cc4)c4ccc([n-]4)c(-c4ccc(C(=O)O)cc4)c4nc(c(-c5ccc(C(=O)O)cc5)c5ccc2[n-]5)C=C4)C=C3)cc1.[Zn+2] [compound 8, Zn(II) 5,10,15,20-tetra(4-carboxyphenyl)porphyrin]
comparative binding affinity, in words [1]: too weak to measure accurately

Compound: O=S(=O)([O-])c1ccc(-c2c3nc(c(-c4ccc(S(=O)(=O)[O-])cc4)c4ccc([n-]4)c(-c4ccc(S(=O)(=O)[O-])cc4)c4nc(c(-c5ccccc5)c5ccc2[n-]5)C=C4)C=C3)cc1.O=S(=O)([O-])c1ccc(-c2c3nc(c(-c4ccc(S(=O)(=O)[O-])cc4)c4ccc([n-]4)c(-c4ccc(S(=O)(=O)[O-])cc4)c4nc(c(-c5ccccc5)c5ccc2[n-]5)C=C4)C=C3)cc1.[Zn+2].[Zn+2].[Zn+2].[Zn+2].[Zn+2] [compound 2, Zn(II) 5,10,15-tri(4-sulphonatophenyl)-5-phenylporphyrin]
association with His-free maquette (Soret spectral change) [2]: partial association of the tetrapyrrole with the maquette
association with His-containing maquette (Soret spectral change) (His-containing maquette): indicative of histidine ligation

Compound: O=S(=O)([O-])c1ccc(-c2c3nc(c(-c4ccc(S(=O)(=O)[O-])cc4)c4ccc([n-]4)c(-c4ccc(S(=O)(=O)[O-])cc4)c4nc(c(-c5ccc(S(=O)(=O)[O-])cc5)c5ccc2[n-]5)C=C4)C=C3)cc1.[Zn+2].[Zn+2].[Zn+2] [compound 1, Zn(II) 5,10,15,20-tetra(4-sulphonatophenyl)porphyrin]
association with His-free maquette (Soret spectral change) [2]: does not associate with either maquette
association with His-containing maquette (Soret spectral change) (His-containing maquette): does not associate with either maquette
water solubility, in words [3]: highly water-soluble

Compound: O=C(O)c1ccc(-c2c3nc(cc4ccc([n-]4)c(-c4ccccc4)c4nc(cc5ccc2[n-]5)C=C4)C=C3)cc1.[Zn+2] [compound 9, Zn(II) 5-phenyl-15-(p-carboxyphenyl)porphyrin]
time for binding equilibrium to reach completion (protein maquette; stopped flow, 2 µM maquette, one equivalent of porphyrin, 20 mM CHES, 150 mM KCl): 20 min

Compound: O=C(O)c1ccc(-c2c3nc(c(-c4ccccc4)c4ccc([n-]4)c(-c4ccccc4)c4nc(c(-c5ccccc5)c5ccc2[n-]5)C=C4)C=C3)cc1.[Zn+2] [compound 4, Zn(II) 5-4-(carboxyphenyl)-10,15,20-triphenylporphyrin]
affinity relative to (5), (6) and (7) ([1]; His maquette, estimated): about two orders of magnitude tighter

Compound: C1=Cc2nc1c(-c1ccccc1)c1ccc([n-]1)c(-c1ccccc1)c1nc(c(-c3ccccc3)c3ccc([n-]3)c2-c2ccccc2)C=C1.[Zn+2] [compound 3, Zn(II) 5,10,15,20-tetraphenylporphyrin, reference compound]
comparative binding affinity, in words [1]: too weak to measure accurately

The next lines start with results.

Kd ([1]; His maquette): 250 ± 47 nM
binding speed, in words (protein maquette): few ms timescale
Compound: Zn(II) 5-phenyl-15-(p-carboxyphenyl)porphyrin with first generation Newkome dendrimer [compound 10]
water solubility, in words [3]: substantially increased the water solubility

lowering of affinity relative to (11) ([1]; His maquette, Kd of (12) vs (11)): 4.5 fold
Compound: CC1(C)Cc2nc1cc1cc(C#Cc3ccccc3)c(cc3nc(cc4ccc([n-]4)c2-c2ccc(C(=O)O)cc2)C=C3)[n-]1.[Zn+2] [compound 12, Zn(II) 15-(4-carboxyphenyl)-17,18-dihydro-18,18-dimethyl-3-(phenylethynyl)porphyrin]

Kd ([1]; His maquette): 4 ± 3 nM
Compound: C=Cc1c(C)c2[n]3c1=CC1=[N+]4C(=Cc5c(C)c6c7[n]5[Zn-2]34[N+]3=C(C=2)[C@@H](C)[C@H](CCC(=O)O)C3=C7[C@@H](C(=O)OC)C6=O)C(CC)=C1C (stereo partly drawn) [compound 13, Zn pheophorbide a]

Kd ([1]; His maquette): 80 ± 10 nM
thermal mid point transition of α-helical structure (Tm) upon chlorin binding (maquette; 46 °C without cofactor): 61 °C
Compound: Cc1ccc(-c2c3nc(cc4ccc([nH]4)c(-c4ccc(C(=O)O)cc4)c4nc(cc5ccc2[nH]5)C(C)(C)C4)C=C3)cc1 [compound 11, 15-(4-carboxyphenyl)-17,18-dihydro-18,18-dimethyl-5-p-tolylporphyrin]
binding speed, in words (protein maquette): binds much faster than the similarly substituted porphyrin (9)
structure stabilization corresponding to the Tm shift (maquette): 6.8 kcal mol^–1
